Data reported in ChEMBL document CHEMBL1138170, “Novel lactam NK1 antagonists with anti-emetic activity” (Bioorg Med Chem Lett, 2006).

How the values were obtained:
Gerbil, jird [1] = experiment: Inhibition of GR-73632-induced foot-tapping in iv dosed gerbils after 0 h; type: functional; details: Meriones, read-out: ID50 (the source's name)
Substance-P receptor = Substance-P receptor (Homo sapiens, UniProt P25103); experiment: Displacement of [125I]-labeled substance P from the cloned human NK1 receptor expressed in CHO cells; type: cell-based
Mustela putorius furo = experiment: Inhibition of cis-platin induced emesis in ferrets at 1 mg/kg, iv; type: functional
[2] = target: Voltage-gated inwardly rectifying potassium channel KCNH2 (Homo sapiens, UniProt Q12809); experiment: Displacement of labelled MK-499 from cloned channel hERG expressed in HEK cells; type: cell-based, HEK293
Gerbil, jird [3] = experiment: Inhibition of GR-73632-induced foot-tapping in gerbils after 24 h at 3 mg/kg, iv; type: functional; details: Meriones
Gerbil, jird [4] = experiment: Inhibition of GR-73632-induced foot-tapping in iv dosed gerbils after 24 h; details: Meriones, read-out: ID50 (the source's name)
Gerbil, jird [5] = experiment: Inhibition of GR-73632-induced foot-tapping in iv dosed gerbils after 24 h; type: functional; details: Meriones, read-out: ID50 (the source's name)
Gerbil, jird [6] = experiment: Inhibition of GR-73632-induced foot-tapping in po dosed gerbils after 24 h; type: functional; details: Meriones, read-out: ID50 (the source's name)
Gerbil, jird [7] = experiment: Inhibition of GR-73632-induced foot-tapping in iv dosed gerbils after 2 h; type: functional; details: Meriones, read-out: ID50 (the source's name)

Voltage-gated inwardly rectifying potassium channel KCNH2, sequence (Q12809 whole entry): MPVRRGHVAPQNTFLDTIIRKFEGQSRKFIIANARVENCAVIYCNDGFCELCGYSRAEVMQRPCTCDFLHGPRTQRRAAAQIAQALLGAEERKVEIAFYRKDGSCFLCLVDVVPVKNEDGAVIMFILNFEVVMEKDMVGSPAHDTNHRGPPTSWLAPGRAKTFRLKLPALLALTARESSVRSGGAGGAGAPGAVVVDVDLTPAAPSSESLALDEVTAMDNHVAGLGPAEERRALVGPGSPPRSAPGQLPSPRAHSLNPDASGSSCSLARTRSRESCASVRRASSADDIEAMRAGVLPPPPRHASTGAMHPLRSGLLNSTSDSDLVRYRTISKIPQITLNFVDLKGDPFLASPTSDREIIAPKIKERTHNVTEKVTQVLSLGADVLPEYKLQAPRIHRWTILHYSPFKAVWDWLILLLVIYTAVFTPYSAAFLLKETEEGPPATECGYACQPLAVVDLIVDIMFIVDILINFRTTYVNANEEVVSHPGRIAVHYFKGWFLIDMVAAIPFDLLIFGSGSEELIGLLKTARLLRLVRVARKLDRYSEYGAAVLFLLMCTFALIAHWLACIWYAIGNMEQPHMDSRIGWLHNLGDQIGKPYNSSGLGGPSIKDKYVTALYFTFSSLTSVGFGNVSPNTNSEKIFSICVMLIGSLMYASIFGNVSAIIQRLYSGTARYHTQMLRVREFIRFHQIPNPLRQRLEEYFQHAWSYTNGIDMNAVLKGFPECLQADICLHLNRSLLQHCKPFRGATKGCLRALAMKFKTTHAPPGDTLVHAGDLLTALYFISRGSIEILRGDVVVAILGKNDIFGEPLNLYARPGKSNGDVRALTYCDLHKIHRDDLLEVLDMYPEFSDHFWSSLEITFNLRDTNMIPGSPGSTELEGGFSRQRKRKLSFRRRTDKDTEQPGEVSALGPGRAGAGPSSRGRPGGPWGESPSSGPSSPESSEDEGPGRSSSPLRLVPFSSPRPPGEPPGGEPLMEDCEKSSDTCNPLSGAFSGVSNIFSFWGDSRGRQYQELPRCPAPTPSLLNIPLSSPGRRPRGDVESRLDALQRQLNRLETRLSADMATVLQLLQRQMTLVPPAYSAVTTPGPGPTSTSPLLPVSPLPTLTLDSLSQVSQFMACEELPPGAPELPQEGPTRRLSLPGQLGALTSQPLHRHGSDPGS
Substance-P receptor, sequence (P25103 whole entry): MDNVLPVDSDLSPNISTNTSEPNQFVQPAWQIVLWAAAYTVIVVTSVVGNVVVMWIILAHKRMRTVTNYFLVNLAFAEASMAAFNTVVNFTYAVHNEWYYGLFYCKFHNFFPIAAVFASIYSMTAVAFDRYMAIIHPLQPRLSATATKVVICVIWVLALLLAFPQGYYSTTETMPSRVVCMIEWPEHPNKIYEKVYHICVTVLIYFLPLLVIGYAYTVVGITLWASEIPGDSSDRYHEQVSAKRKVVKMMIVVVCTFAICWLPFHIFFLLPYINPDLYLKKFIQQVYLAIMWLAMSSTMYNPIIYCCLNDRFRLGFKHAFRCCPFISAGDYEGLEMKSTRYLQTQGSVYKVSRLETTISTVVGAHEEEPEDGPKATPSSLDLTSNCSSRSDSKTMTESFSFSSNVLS

SMILES	IC50 (Substance-P receptor) [nM]	ED50 (Gerbil, jird [1]) [mg/kg]	inhibition in vivo at 1 mg/kg (Mustela putorius furo) [%]	Ki [2] [nM]	inhibition in vivo at 3 mg/kg (Gerbil, jird [3]) [%]	ED50 (Gerbil, jird [4]) [mg/kg]	ED50 (Gerbil, jird [5]) [mg/kg]	ED50 (Gerbil, jird [6]) [mg/kg]	ED50 (Gerbil, jird [7]) [mg/kg]
O=C1N([C@]2(c3ccccc3)CC[C@@H](N3CCC4(CCOC4)CC3)CC2)CCC1(O)c1cc(C(F)(F)F)cc(C(F)(F)F)c1 (some centres undefined)	0.66			862	5				
CN(C)[C@H]1CC[C@](c2ccccc2)(N2CCC(c3cc(C(F)(F)F)cc(C(F)(F)F)c3)C2=O)CC1 (some centres undefined)	6.2			984					
O=C1CN([C@H]2CC[C@](c3ccccc3)(N3CCC(c4cc(C(F)(F)F)cc(C(F)(F)F)c4)C3=O)CC2)CCN1c1ccccc1 (some centres undefined)	1.1	0.09		2000		2.1			
CC(C(=O)N[C@]1(c2ccccc2)CC[C@@H](N2CCN(c3ccccc3)C(=O)C2)CC1)c1cc(C(F)(F)F)cc(C(F)(F)F)c1 (some centres undefined)	0.62	0.13		3710			1.2		
O=C1CN([C@H]2CC[C@](c3ccccc3)(N3CCCC(c4cc(C(F)(F)F)cc(C(F)(F)F)c4)C3=O)CC2)CCN1c1ccccc1 (some centres undefined)	1.5			6530					
O=C1C(c2cc(C(F)(F)F)cc(C(F)(F)F)c2)CCCN1[C@]1(c2ccccc2)CC[C@@H](N2CCC3(CCOC3)CC2)CC1 (some centres undefined)	0.8			798	34				

Compounds with a lower IC50 (Substance-P receptor), results first:

IC50 (Substance-P receptor) [nM]	SMILES	ED50 (Gerbil, jird [1]) [mg/kg]	inhibition in vivo at 1 mg/kg (Mustela putorius furo) [%]	Ki [2] [nM]	inhibition in vivo at 3 mg/kg (Gerbil, jird [3]) [%]	ED50 (Gerbil, jird [4]) [mg/kg]	ED50 (Gerbil, jird [5]) [mg/kg]	ED50 (Gerbil, jird [6]) [mg/kg]	ED50 (Gerbil, jird [7]) [mg/kg]
0.5	O=C1C(c2cc(C(F)(F)F)cc(C(F)(F)F)c2)CCN1[C@]1(c2ccccc2)CC[C@@H](N2CCC3(CCOC3)CC2)CC1 (some centres undefined)	0.35	50	327	62				
0.48	CC1(c2cc(C(F)(F)F)cc(C(F)(F)F)c2)CCN([C@]2(c3ccccc3)CC[C@@H](N3CCN(c4ccccc4Cl)C(=O)C3)CC2)C1=O (some centres undefined)				57				
0.48	COC1(c2cc(C(F)(F)F)cc(C(F)(F)F)c2)CCN([C@]2(c3ccccc3)CC[C@@H](N3CCC4(CCOC4)CC3)CC2)C1=O (some centres undefined)				29				
0.48	CC1(c2cc(C(F)(F)F)cc(C(F)(F)F)c2)CCN([C@]2(c3ccccc3)CC[C@@H](N3CCN(c4ccccc4)C(=O)C3)CC2)C1=O (some centres undefined)	0.22	90				0.6		
0.34	CC(C(=O)N[C@]1(c2ccccc2)CC[C@@H](N2CCC3(CCOC3)CC2)CC1)c1cc(C(F)(F)F)cc(C(F)(F)F)c1 (some centres undefined)	1.44					1.62	2.2	1.1
0.33	CC1(c2cc(C(F)(F)F)cc(C(F)(F)F)c2)CCN([C@]2(c3ccccc3)CC[C@@H](N3CCC4(CCOC4)CC3)CC2)C1=O (some centres undefined)			364			0.24		
